Results reported in US20100324829A1, “METHOD OF SELECTING HLA-DP4 LIGANDS AND THE APPLICATIONS THEREOF” (priority 2001, published 2010).
Positions count from the first letter of the chain named.

Assays:
[1] = target: T1, HLA-DP4 molecule DPA1*0103/DPB1*0401 (DP401) (Homo sapiens, UniProt P04440+P20036); experiment: biochemical; assay type: binding
T1 construct: purified from various human B lymphocyte lines transformed with the Epstein Barr virus (EBV), which are homozygotes for DP; endogenous in cells
T1 sequence (P20036 29-260): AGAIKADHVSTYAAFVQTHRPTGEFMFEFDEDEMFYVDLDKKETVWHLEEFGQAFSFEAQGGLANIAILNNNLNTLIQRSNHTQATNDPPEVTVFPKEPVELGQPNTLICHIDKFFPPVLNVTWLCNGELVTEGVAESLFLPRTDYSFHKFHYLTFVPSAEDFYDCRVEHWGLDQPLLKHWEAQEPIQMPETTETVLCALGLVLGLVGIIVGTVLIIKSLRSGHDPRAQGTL
T1 sequence (P04440 30-258): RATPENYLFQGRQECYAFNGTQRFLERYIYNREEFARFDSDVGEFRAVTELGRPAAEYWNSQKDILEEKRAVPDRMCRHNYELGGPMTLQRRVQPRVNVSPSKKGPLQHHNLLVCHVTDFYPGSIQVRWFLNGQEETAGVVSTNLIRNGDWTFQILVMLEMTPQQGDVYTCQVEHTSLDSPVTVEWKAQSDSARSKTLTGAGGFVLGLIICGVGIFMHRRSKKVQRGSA

[2] = target: T2, HLA-DP4 molecule DPA1*0103/DPB1*0402 (DP402) (Homo sapiens, UniProt P04440+P20036); experiment: biochemical; assay type: binding
T2 construct: purified from various human B lymphocyte lines transformed with the Epstein Barr virus (EBV), which are homozygotes for DP; endogenous in cells
T2 sequence (P20036 29-260): T1 sequence (P20036 29-260)
T2 sequence (P04440 30-258 A65V/A84D/A85E): T1 sequence (P04440 30-258) with A36V, A55D, A56E

KYFAAKQFEPLAA [UNK T8K]
Loss of binding to DP*0401 (ratio of the IC50 values for the mutant peptide and for the UNK1 peptide) [1]: 31
Loss of binding to DP*0402 (ratio of the IC50 values for the mutant peptide and for the UNK1 peptide) [2]: 3.6

KYFKATQFEPLAA [UNK A6K]
Loss of binding to DP*0401 (ratio of the IC50 values for the mutant peptide and for the UNK1 peptide) [1]: 1.6
Loss of binding to DP*0402 (ratio of the IC50 values for the mutant peptide and for the UNK1 peptide) [2]: 1

KYNAATQFEPLAA [UNK F5N]
Loss of binding to DP*0401 (ratio of the IC50 values for the mutant peptide and for the UNK1 peptide) [1]: 398
Loss of binding to DP*0402 (ratio of the IC50 values for the mutant peptide and for the UNK1 peptide) [2]: 76

KYFAATQNEPLAA [UNK F10N]
Loss of binding to DP*0401 (ratio of the IC50 values for the mutant peptide and for the UNK1 peptide) [1]: 2460
Loss of binding to DP*0402 (ratio of the IC50 values for the mutant peptide and for the UNK1 peptide) [2]: 1809

KYFAANQFEPLAA [UNK T8N]
Loss of binding to DP*0401 (ratio of the IC50 values for the mutant peptide and for the UNK1 peptide) [1]: 4.1
Loss of binding to DP*0402 (ratio of the IC50 values for the mutant peptide and for the UNK1 peptide) [2]: 4.8

KYFAATQFEPAAA [UNK L13A]
Loss of binding to DP*0401 (ratio of the IC50 values for the mutant peptide and for the UNK1 peptide) [1]: 3.1
Loss of binding to DP*0402 (ratio of the IC50 values for the mutant peptide and for the UNK1 peptide) [2]: 2.3

KYFAKTQFEPLAA [UNK A7K]
Loss of binding to DP*0401 (ratio of the IC50 values for the mutant peptide and for the UNK1 peptide) [1]: 2
Loss of binding to DP*0402 (ratio of the IC50 values for the mutant peptide and for the UNK1 peptide) [2]: 1.2

KYFAATQFEPVAA [UNK L13V]
Loss of binding to DP*0401 (ratio of the IC50 values for the mutant peptide and for the UNK1 peptide) [1]: 2.5
Loss of binding to DP*0402 (ratio of the IC50 values for the mutant peptide and for the UNK1 peptide) [2]: 1.9

KYFAATQFEPLKA [UNK A13K]
Loss of binding to DP*0401 (ratio of the IC50 values for the mutant peptide and for the UNK1 peptide) [1]: 1.7
Loss of binding to DP*0402 (ratio of the IC50 values for the mutant peptide and for the UNK1 peptide) [2]: 1.4

KYFAATQFEPKAA [UNK L13K]
Loss of binding to DP*0401 (ratio of the IC50 values for the mutant peptide and for the UNK1 peptide) [1]: 81
Loss of binding to DP*0402 (ratio of the IC50 values for the mutant peptide and for the UNK1 peptide) [2]: 70

KYFAATQKEPLAA [UNK F10K]
Loss of binding to DP*0401 (ratio of the IC50 values for the mutant peptide and for the UNK1 peptide) [1]: 420
Loss of binding to DP*0402 (ratio of the IC50 values for the mutant peptide and for the UNK1 peptide) [2]: 350

KYFAATQLEPLAA [UNK F10L]
Loss of binding to DP*0401 (ratio of the IC50 values for the mutant peptide and for the UNK1 peptide) [1]: 7.2
Loss of binding to DP*0402 (ratio of the IC50 values for the mutant peptide and for the UNK1 peptide) [2]: 6.7

KKFAATQFEPLAA [UNK Y4K]
Loss of binding to DP*0401 (ratio of the IC50 values for the mutant peptide and for the UNK1 peptide) [1]: 1.2
Loss of binding to DP*0402 (ratio of the IC50 values for the mutant peptide and for the UNK1 peptide) [2]: 1

KYFAATKFEPLAA [UNK Q9K]
Loss of binding to DP*0401 (ratio of the IC50 values for the mutant peptide and for the UNK1 peptide) [1]: 1.6
Loss of binding to DP*0402 (ratio of the IC50 values for the mutant peptide and for the UNK1 peptide) [2]: 0.9

KYFAATQFEPLAK [UNK A15K]
Loss of binding to DP*0401 (ratio of the IC50 values for the mutant peptide and for the UNK1 peptide) [1]: 1.7
Loss of binding to DP*0402 (ratio of the IC50 values for the mutant peptide and for the UNK1 peptide) [2]: 1.4

KYLAATQFEPLAA [UNK F5L]
Loss of binding to DP*0401 (ratio of the IC50 values for the mutant peptide and for the UNK1 peptide) [1]: 3.6
Loss of binding to DP*0402 (ratio of the IC50 values for the mutant peptide and for the UNK1 peptide) [2]: 6

CC[C@H](C)[C@H](NC(=O)[C@H](CC(C)C)NC(=O)[C@H](CC(N)=O)NC(=O)[C@H](Cc1ccccc1)NC(=O)[C@H](Cc1ccc(O)cc1)NC(=O)[C@H](CCSC)NC(=O)[C@H](CCCCN)NC(=O)CNC(=O)[C@@H](NC(=O)[C@H](Cc1ccccc1)NC(=O)[C@@H](N)Cc1ccc(O)cc1)C(C)C)C(=O)N[C@@H](CC(=O)O)C(=O)N[C@H](C(=O)N[C@@H](CCCCN)C(=O)N[C@@H](CS)C(=O)N[C@@H](Cc1ccc(O)cc1)C(=O)N[C@@H](CCCCN)C(=O)N[C@@H](CC(C)C)C(=O)O)[C@@H](C)O [81-98]
IC50 ([1]; IC50 (nM) DP0401, Api m1 overlapping peptides, tracer bUNK 1-17 10 nM, pH 5, 24 h): 2250 nM

KYTAATQFEPLAA [UNK F5T]
Loss of binding to DP*0401 (ratio of the IC50 values for the mutant peptide and for the UNK1 peptide) [1]: 234
Loss of binding to DP*0402 (ratio of the IC50 values for the mutant peptide and for the UNK1 peptide) [2]: 126

KYFAAEQFEPLAA [UNK T8E]
Loss of binding to DP*0401 (ratio of the IC50 values for the mutant peptide and for the UNK1 peptide) [1]: 2.7
Loss of binding to DP*0402 (ratio of the IC50 values for the mutant peptide and for the UNK1 peptide) [2]: 3.7

KYFAATAFEPLAA [UNK Q9A]
Loss of binding to DP*0401 (ratio of the IC50 values for the mutant peptide and for the UNK1 peptide) [1]: 0.8
Loss of binding to DP*0402 (ratio of the IC50 values for the mutant peptide and for the UNK1 peptide) [2]: 0.6

KYFAATQFEPNAA [UNK L13N]
Loss of binding to DP*0401 (ratio of the IC50 values for the mutant peptide and for the UNK1 peptide) [1]: 17
Loss of binding to DP*0402 (ratio of the IC50 values for the mutant peptide and for the UNK1 peptide) [2]: 10

KYFAATQFEPYAA [UNK L13Y]
Loss of binding to DP*0401 (ratio of the IC50 values for the mutant peptide and for the UNK1 peptide) [1]: 2
Loss of binding to DP*0402 (ratio of the IC50 values for the mutant peptide and for the UNK1 peptide) [2]: 15

KYFAATQFAPLAA [UNK E11A]
Loss of binding to DP*0401 (ratio of the IC50 values for the mutant peptide and for the UNK1 peptide) [1]: 0.5
Loss of binding to DP*0402 (ratio of the IC50 values for the mutant peptide and for the UNK1 peptide) [2]: 0.5

KYFAATQFKPLAA [UNK E11K]
Loss of binding to DP*0401 (ratio of the IC50 values for the mutant peptide and for the UNK1 peptide) [1]: 1.3
Loss of binding to DP*0402 (ratio of the IC50 values for the mutant peptide and for the UNK1 peptide) [2]: 0.7

KAFAATQFEPLAA [UNK Y4A]
Loss of binding to DP*0401 (ratio of the IC50 values for the mutant peptide and for the UNK1 peptide) [1]: 1.2
Loss of binding to DP*0402 (ratio of the IC50 values for the mutant peptide and for the UNK1 peptide) [2]: 0.9

KYFAATQAEPLAA [UNK F10A]
Loss of binding to DP*0401 (ratio of the IC50 values for the mutant peptide and for the UNK1 peptide) [1]: 336
Loss of binding to DP*0402 (ratio of the IC50 values for the mutant peptide and for the UNK1 peptide) [2]: 62

KYFAAAQFEPLAA [UNK T8A]
Loss of binding to DP*0401 (ratio of the IC50 values for the mutant peptide and for the UNK1 peptide) [1]: 0.8
Loss of binding to DP*0402 (ratio of the IC50 values for the mutant peptide and for the UNK1 peptide) [2]: 0.8

KYFAAYQFEPLAA [UNK T8Y]
Loss of binding to DP*0401 (ratio of the IC50 values for the mutant peptide and for the UNK1 peptide) [1]: 4.1
Loss of binding to DP*0402 (ratio of the IC50 values for the mutant peptide and for the UNK1 peptide) [2]: 2.4

KYFAATQYEPLAA [UNK F10Y]
Loss of binding to DP*0401 (ratio of the IC50 values for the mutant peptide and for the UNK1 peptide) [1]: 2.4
Loss of binding to DP*0402 (ratio of the IC50 values for the mutant peptide and for the UNK1 peptide) [2]: 3.4

KYFAATQTEPLAA [UNK F10T]
Loss of binding to DP*0401 (ratio of the IC50 values for the mutant peptide and for the UNK1 peptide) [1]: 1171
Loss of binding to DP*0402 (ratio of the IC50 values for the mutant peptide and for the UNK1 peptide) [2]: 476

KYFAASQFEPLAA [UNK T8S]
Loss of binding to DP*0401 (ratio of the IC50 values for the mutant peptide and for the UNK1 peptide) [1]: 2.7
Loss of binding to DP*0402 (ratio of the IC50 values for the mutant peptide and for the UNK1 peptide) [2]: 3.4

KYFAATQFEPFAA [UNK L13F]
Loss of binding to DP*0401 (ratio of the IC50 values for the mutant peptide and for the UNK1 peptide) [1]: 1.7
Loss of binding to DP*0402 (ratio of the IC50 values for the mutant peptide and for the UNK1 peptide) [2]: 4

KYYAATQFEPLAA [UNK F5Y]
Loss of binding to DP*0401 (ratio of the IC50 values for the mutant peptide and for the UNK1 peptide) [1]: 3
Loss of binding to DP*0402 (ratio of the IC50 values for the mutant peptide and for the UNK1 peptide) [2]: 3.9

KYFAATQFEALAA [UNK P12A]
Loss of binding to DP*0401 (ratio of the IC50 values for the mutant peptide and for the UNK1 peptide) [1]: 1.2
Loss of binding to DP*0402 (ratio of the IC50 values for the mutant peptide and for the UNK1 peptide) [2]: 0.9

AYFAATQFEPLAA [UNK K3A]
Loss of binding to DP*0401 (ratio of the IC50 values for the mutant peptide and for the UNK1 peptide) [1]: 0.9
Loss of binding to DP*0402 (ratio of the IC50 values for the mutant peptide and for the UNK1 peptide) [2]: 1

KYFAATQFEKLAA [UNK P12K]
Loss of binding to DP*0401 (ratio of the IC50 values for the mutant peptide and for the UNK1 peptide) [1]: 1.8
Loss of binding to DP*0402 (ratio of the IC50 values for the mutant peptide and for the UNK1 peptide) [2]: 1.4

KYFAATQEEPLAA [UNK F10E]
Loss of binding to DP*0401 (ratio of the IC50 values for the mutant peptide and for the UNK1 peptide) [1]: 1405
Loss of binding to DP*0402 (ratio of the IC50 values for the mutant peptide and for the UNK1 peptide) [2]: 1190

KYFAAFQFEPLAA [UNK T8F]
Loss of binding to DP*0401 (ratio of the IC50 values for the mutant peptide and for the UNK1 peptide) [1]: 2.7
Loss of binding to DP*0402 (ratio of the IC50 values for the mutant peptide and for the UNK1 peptide) [2]: 1.7

KYAAATQFEPLAA [UNK F5A]
Loss of binding to DP*0401 (ratio of the IC50 values for the mutant peptide and for the UNK1 peptide) [1]: 41
Loss of binding to DP*0402 (ratio of the IC50 values for the mutant peptide and for the UNK1 peptide) [2]: 5.7

KYFAATQFEPEAA [UNK L13E]
Loss of binding to DP*0401 (ratio of the IC50 values for the mutant peptide and for the UNK1 peptide) [1]: 11
Loss of binding to DP*0402 (ratio of the IC50 values for the mutant peptide and for the UNK1 peptide) [2]: 8

KYFAADQFEPLAA [UNK T8D]
Loss of binding to DP*0401 (ratio of the IC50 values for the mutant peptide and for the UNK1 peptide) [1]: 2
Loss of binding to DP*0402 (ratio of the IC50 values for the mutant peptide and for the UNK1 peptide) [2]: 2.3

KYFAATQFEPRAA [UNK L13R]
Loss of binding to DP*0401 (ratio of the IC50 values for the mutant peptide and for the UNK1 peptide) [1]: 64
Loss of binding to DP*0402 (ratio of the IC50 values for the mutant peptide and for the UNK1 peptide) [2]: 43

KYFAALQFEPLAA [UNK T8L]
Loss of binding to DP*0401 (ratio of the IC50 values for the mutant peptide and for the UNK1 peptide) [1]: 1.9
Loss of binding to DP*0402 (ratio of the IC50 values for the mutant peptide and for the UNK1 peptide) [2]: 2.6
